Experimental data: patent US5773446A, “Diamino pyrimidines” (Hoffmann-La Roche Inc., priority 1995, dated 1998)

Assays:
[1] = biological target: purified DHFR of the reference strain S. aureus ATCC 25923 (Staphylococcus aureus, UniProt P0A017); experiment: Inhibition of purified DHFR of reference strain S. aureus ATCC 25923; format: biochemical
Description: (§1) The inhibition of this enzyme was taken as a measurement for the antibacterial activity.

[2] = biological target: T1, purified DHFR of the opportunistic pathogen P. carinii (Pneumocystis carinii, UniProt P16184); experiment: biochemical
T1 sequence (P16184 1-206): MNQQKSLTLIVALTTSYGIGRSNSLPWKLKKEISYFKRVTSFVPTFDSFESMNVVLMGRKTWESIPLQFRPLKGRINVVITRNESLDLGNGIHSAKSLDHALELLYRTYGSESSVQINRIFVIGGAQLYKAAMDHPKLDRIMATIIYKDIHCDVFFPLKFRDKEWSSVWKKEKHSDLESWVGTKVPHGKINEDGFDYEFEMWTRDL
Description: as §1

Chain of purified DHFR of the reference strain S. aureus ATCC 25923 (P0A017 whole entry): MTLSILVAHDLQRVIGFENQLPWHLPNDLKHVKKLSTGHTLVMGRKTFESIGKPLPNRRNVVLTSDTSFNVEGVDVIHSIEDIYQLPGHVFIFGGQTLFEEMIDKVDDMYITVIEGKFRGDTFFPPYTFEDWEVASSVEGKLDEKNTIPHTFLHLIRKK

COc1cc(Cc2cnc(N)nc2N)c2c(c1OC)OC(CCCC(=O)O)C=C2 (racemic) [Example 6, (RS)-4-[5-(2,4-diamino-pyrimidin-5-ylmethyl)-7,8-dimethoxy-2H-1-benzopyran-2-yl]-butyric acid]
IC50 [1]: 5 nM
IC50 [2]: 220 nM

CCCCCC1C=Cc2c(Cc3cnc(N)nc3N)cc(OC)c(OC)c2O1 (racemic) [Example 7, (RS)-5-(7,8-dimethoxy-2-pentyl-2H-1-benzopyran-5-ylmethyl)-pyrimidine-2,4-diamine]
IC50 [1]: 16 nM
IC50 [2]: 2800 nM

COc1cc(Cc2cnc(N)nc2N)c2c(c1OC)OC(C(C)C)C=C2 (racemic) [Example 8, (RS)-5-(2-isopropyl-7,8-dimethoxy-2H-1-benzopyran-5-ylmethyl)-pyrimidine-2,4-diamine]
IC50 [1]: 1 nM
IC50 [2]: 1000 nM

COc1cc(Cc2cnc(N)nc2N)c2c(c1OC)OC(CC(C)C)C=C2 (racemic) [Example 9, (RS)-5-(2-isobutyl-7,8-dimethoxy-2H-1-benzopyran-5-ylmethyl)-pyrimidine-2,4-diamine]
IC50 [1]: 1 nM
IC50 [2]: 3000 nM

COc1c(OCCCC(=O)O)cc(Cc2cnc(N)nc2N)c2c1OCC=C2 [Example 10, 4-[5-(2,4-diamino-pyrimidin-5-ylmethyl)-8-methoxy-2H-1-benzopyran-7-yloxy]-butyric acid]
IC50 [1]: 5 nM
IC50 [2]: 40 nM
